These results are taken from ChEMBL document CHEMBL4342418, “1,2,3-Triazole-containing hybrids as potential anticancer agents: Current developments, action mechanisms and structure-activity relationships” (Eur J Med Chem, 2019).

Experiment [1] deals with A549. The experiment can be described thus: Antiproliferative activity against human A549 cells. Type of experiment: functional, cell-based.
In experiment [2] the test system is HepG2. The experiment can be described thus: Antiproliferative activity against human HepG2 cells. Format: functional, cell-based.
Experiment [3] has as its system HeLa. The experiment can be described thus: Antiproliferative activity against human HeLa cells. Format: functional, cell-based.
Experiment [4] relates to A549. The experiment can be described thus: cells. Format: functional, cell-based. Particulars: Homo sapiens.
Description: Antiproliferative activity against human A549 cells by MTT assay
In another experiment the test system is NCI-H460. The experiment can be described thus: Antiproliferative activity against human H460 cells by MTT assay. Type of experiment: functional, cell-based.
Experiment [5] deals with MCF7. The experiment can be described thus: cells. Type of experiment: functional, cell-based. The settings on record: Homo sapiens.
Description: Antiproliferative activity against human MCF7 cells by MTT assay
Another experiment has as its system HCT-116. The experiment can be described thus: Antiproliferative activity against human HCT116 cells by MTT assay. Type of experiment: functional, cell-based. (In general: Tetrazolium assays rely on reduction of a dye to a coloured formazan, in cell work by metabolically active cells.)
Experiment [6] relates to HepG2. The experiment can be described thus: Antiproliferative activity against human HepG2 cells by MTT assay. Type of experiment: functional, cell-based.
Another experiment deals with K562. The experiment can be described thus: Antiproliferative activity against human K562 cells by MTT assay. Format: functional, cell-based.
A further experiment relates to LoVo. The experiment can be described thus: Antiproliferative activity against human LoVo cells by MTT assay. Format: functional, cell-based.
Experiment [7] has as its system MDA-MB-231. The experiment can be described thus: cells. The settings on record: Homo sapiens.
Description: Antiproliferative activity against human MDA-MB-231 cells assessed as reduction in cell viability preincubated for 24 hrs under hypoxia condition further incubated for 72 hrs under normaxic condition by MTT assay
In experiment [8] the test system is MDA-MB-231. The experiment can be described thus: cells. Particulars: Homo sapiens, MDA-MB-231, 96 h.
Description: Antiproliferative activity against human MDA-MB-231 cells assessed as reduction in cell viability incubated for 96 hrs under normaxic condition by MTT assay
Experiment [9] relates to MCF7. The experiment can be described thus: Antiproliferative activity against human MCF7 cells assessed as reduction in cell viability after 72 hrs by MTT assay. Type of experiment: functional, cell-based. Particulars: MCF7, 72 h.
A further experiment deals with T47D. The experiment can be described thus: Antiproliferative activity against human T47D cells assessed as reduction in cell viability after 72 hrs by MTT assay. Type of experiment: functional, cell-based.
In experiment [10] the test system is HeLa. The experiment can be described thus: Antiproliferative activity against human HeLa cells assessed as reduction in cell viability after 72 hrs by MTT assay. Format: functional, cell-based.
Experiment [11] deals with MDA-MB-231. The experiment can be described thus: Antiproliferative activity against human MDA-MB-231 cells assessed as reduction in cell viability after 72 hrs by MTT assay. Format: functional, cell-based. Particulars: MDA-MB-231, 72 h, read-out: IC50.
For another experiment, the system named is A-431. The experiment can be described thus: Antiproliferative activity against human A431 cells assessed as reduction in cell viability after 72 hrs by MTT assay. The settings on record: A-431, 72 h. Format: functional, cell-based.
A further experiment concerns A2780. The experiment can be described thus: Antiproliferative activity against human A2780 cells assessed as reduction in cell viability after 72 hrs by MTT assay. Format: functional, cell-based. The settings on record: A2780, 72 h.
Experiment [12] can be described thus: Antiproliferative activity against human […] cells assessed as reduction in cell viability after 72 hrs by MTT assay. Type of experiment: functional, cell-based.
In experiment [13] the test system is MGC-803. The experiment can be described thus: Antiproliferative activity against human MGC803 cells by MTT assay. Format: functional, cell-based.
Experiment [14] relates to SK-N-SH. The experiment can be described thus: Antiproliferative activity against human SK-N-SH cells by MTT assay. Format: functional, cell-based.
Experiment [15] deals with MGC-803. The experiment can be described thus: Potency index, ratio of 5-Fluorouracil IC50 to test compound IC50 for antiproliferative activity against human MGC803 cells by MTT assay. Type of experiment: functional.
Experiment [16] relates to SK-N-SH. The experiment can be described thus: Potency index, ratio of 5-Fluorouracil IC50 to test compound IC50 for antiproliferative activity against human SK-N-SH cells by MTT assay. Format: functional.
Experiment [17] deals with HepG2. The experiment can be described thus: Potency index, ratio of 5-Fluorouracil IC50 to test compound IC50 for antiproliferative activity against human HepG2 cells by MTT assay. Format: functional.
A further experiment deals with PC-3. The experiment can be described thus: cells. Format: functional, cell-based. Particulars: Homo sapiens, PC-3, 48 h.
A further experiment relates to SW-620. The experiment can be described thus: cells. The settings on record: Homo sapiens, SW-620, 48 h. Format: functional, cell-based.
The test system of the next experiment is ASPC1. The experiment can be described thus: cells. Format: functional, cell-based. The settings on record: Homo sapiens, ASPC1, 48 h.
A further experiment concerns NCI-H23. The experiment can be described thus: cells. Format: functional, cell-based. Particulars: Homo sapiens, NCI-H23, 48 h.

Description for ASPC1: Antiproliferative activity against human Aspc-1 cells assessed as reduction in cell viability after 48 hrs by MTT assay
Description for NCI-H23: Antiproliferative activity against human NCI-H23 cells assessed as reduction in cell viability after 48 hrs by MTT assay
Description for PC-3: Antiproliferative activity against human PC3 cells assessed as reduction in cell viability after 48 hrs by MTT assay
Description for SW-620: Antiproliferative activity against human SW620 cells assessed as reduction in cell viability after 48 hrs by MTT assay

As for `CCCCCCc1ccc(-c2cn(Cc3cc(=O)oc4cc(O)ccc34)nn2)cc1`, the IC50 with A549 [1], in the experiment with HepG2 [2] and in the experiment on HeLa [3] was 8.73 to 9.16 µM in each case.

As for `COc1ccc2c(c1)OCC(=O)N2Cc1cn(Cc2ccccc2)nn1`, the values for the IC50 in the experiment on A549 [4] and in the experiment on NCI-H460 were 10 µM and 8 µM, respectively.

With `COc1ccc2[nH]cc(Cn3cc(COc4ccc(/C=C/C(=O)NO)cc4OC)nn3)c2c1`, the concentration for half-maximal inhibition (IC50) in the experiment on MCF7 [5], in the experiment with HCT-116, in the experiment with HepG2 [6], with K562 and in the experiment on LoVo was 3.57 to 6.21 µM throughout.

For `COc1ccc(NC(=O)c2ccc(-n3cc(COc4cc(=O)oc5ccccc45)nn3)cc2)cc1OC`, the results for the concentration for half-maximal inhibition (IC50) with MDA-MB-231 [7] and with MDA-MB-231 [8] were 0.03 µM and 1.34 µM, respectively.

With `CC(C)(C)c1ccc(-c2cn([C@H]3C[C@H]4[C@@H]5CCc6cc(OCc7ccccc7)ccc6[C@H]5CC[C@@]4(C)[C@@H]3O)nn2)cc1`, the IC50 with MCF7 [9], in the experiment with T47D, with HeLa [10], in the experiment with MDA-MB-231 [11], in the experiment with A-431 and in the experiment with A2780 was 2.4 to 8.3 µM throughout. Further, the half-maximal inhibitory concentration (IC50) (as a rule, the concentration needed to halve the response being measured) in experiment [12] is 2.4 to 8.3 µM.

For `COc1cccc(Cn2cc(CNc3ccc(C(=O)/C=C/c4cccnc4)cc3)nn2)c1`, the IC50 in the experiment with HepG2 [6], in the experiment with MGC-803 [13] and in the experiment with SK-N-SH [14] was 1.53 to 2.73 µM in each case. Also, the “Ratio IC50” value in the experiment with MGC-803 [15], in the experiment with SK-N-SH [16] and in the experiment on HepG2 [17] was 2.6 - 6.7 in each case.

Turning to `COc1ccc2c(c1)/C(=N\O)C(=O)N2Cc1cn(Cc2ccc(C(=O)NO)cc2)nn1`, the IC50 with PC-3, with SW-620, in the experiment on ASPC1 and with NCI-H23 was 1.4 to 2.62 µM throughout.
